Test results from publication PMC9963887, “Towards Radiolabeled EGFR-Specific Peptides: Alternatives to GE11” (Pharmaceuticals, 2023).
Like-named read-outs stand apart in the source and are kept apart here. Where a SMILES comes first, the peptide text is derived from it. Bridges are numbered along the chain shown (N, C = ends). [ ]: non-standard residue; d: D form. The star is where a group is joined. X1 = O=C(O)CN1CCN(CC(=O)O)CCN([C@H](CCC(=O)*)C(=O)O)CC1; PEG6 = NCCOCCOCCOCCOCCOCCOCCC(=O)O

Key:
[1] = logD(7.4) determination by partition between 1-octanol and phosphate buffer pH 7.4; format: physicochemical
Text: For peptidic radiotracers, hydrophilicity is an important parameter as it can enable the initial assessment of the route by which the radioligand is metabolized and excreted. The commonly determined measure for the hydrophilicity/lipophilicity profile of a radiotracer is the determination of its logD(7.4) value and is investigated by partition experiments between an aqueous phosphate buffer phase at pH 7.4 and 1-octanol. For [^68Ga]Ga-1–[^68Ga]Ga-11, logD(7.4) values of −3.44 ± 0.08 ([^68Ga]Ga-1), −3.51 ± 0.22 ([^68Ga]Ga-2), −3.92 ± 0.09 ([^68Ga]Ga-3), −4.01 ± 0.13 ([^68Ga]Ga-4), −3.91 ± 0.06 ([^68Ga]Ga-5), −3.86 ± 0.11 ([^68Ga]Ga-6), −3.03 ± 0.20 ([^68Ga]Ga-7), −3.16 ± 0.11 ([^68Ga]Ga-8), −2.93 ± 0.08 ([^68Ga]Ga-9), −3.92 ± 0.09 ([^68Ga]Ga-10) and −3.98 ± 0.06 ([^68Ga]Ga-11) were obtained in these partition experiments. This high hydrophilicity of the tracers can be considered beneficial, as it should result in low, non-specific liver accumulation of the agents. This is advantageous with regard to the visualization of malignant liver lesions (especially hepatocellular carcinomas (HCCs) and liver metastases of colon carcinoma), which mostly overexpress the EGFR [46, 47] and, thus, represent an important area of application of an EGFR-specific peptidic radiotracer.
Determination of the logD(7.4) values of [^68Ga]Ga-1–[^68Ga]Ga-11. The aqueous phasepH7.4/1-octanol partition coefficient (logD(7.4)) of the developed radiotracers was determined by addition of a solution of the respective radiolabeled peptide (5 µL, 0.5–2 MBq) to a mixture of 1-octanol (800 µL) and phosphate buffer (0.05 M, pH 7.4, 795 µL). The mixtures were vigorously shaken for 5 min on a mechanical shaker and subsequently centrifuged at 13,000 rpm (12,100× g) for 2 min to achieve complete phase separation. 125 µL of each phase were taken and the amount of radioactivity in each phase was determined by γ-counting. Experiments were performed thrice, each in triplicate.

[2] = stability towards degradation by human serum peptidases; format: in vitro ADME; conditions: pooled human serum, 37 °C, incubation up to 90 min, intact tracer by radio-HPLC; read-out: Calculated Half-Life in Human Serum
Procedure: For the applicability of radiopeptides, their stability towards degradation by human serum peptidases is of importance as a low stability towards metabolization interferes with successful target visualization. Thus, the stability of the radiopeptides [^68Ga]Ga-1–[^68Ga]Ga-11 against degradation was determined by incubation with commercially available pooled human serum of healthy donors at 37 °C for 0, 15, 30, 45, 60, 75 and 90 min. At these time points, the fraction of the intact radiopeptides was again determined by analytical radio-HPLC, and the serum half-life of each radioligand was calculated.
Determination of the stability of [^68Ga]Ga-1–[^68Ga]Ga-11 towards degradation by human serum peptidases. A sample of the respective radiolabeled peptide (125 µL, 10–30 MBq, pH 7.4) was added to commercially available pooled human serum (500 µL) and warmed to 37 °C. At defined time-points (t = 0, […]), 75 µL of the mixture were added to 75 µL ice-cold ethanol, further cooled on ice for 5 min, and centrifuged at 13,000 rpm (12,100× g) for 90 s. The supernatant was collected, the activity of the supernatant and the precipitate measured, where after the supernatant was analyzed by analytical radio-HPLC and the amount of intact tracer was quantified. Experiments were performed thrice for each radioligand.

[3] = 1-octanol / phosphate buffer 0.05 M, read-out: logD(7.4)

Row | Compound | logD [1, 3] | half-life [2] [min] | logD [1]
1 | CC[C@H](C)[C@H](NC(=O)[C@@H](NC(=O)[C@H](CC(N)=O)NC(=O)[C@H](CCC(N)=O)NC(=O)[C@@H]1CCCN1C(=O)[C@@H](NC(=O)[C@H](Cc1ccc(O)cc1)NC(=O)CNC(=O)[C@H](Cc1ccc(O)cc1)NC(=O)[C@H](Cc1c[nH]c2ccccc12)NC(=O)[C@H](Cc1c[nH]cn1)NC(=O)[C@H](Cc1ccc(O)cc1)NC(=O)CCOCCOCCOCCOCCOCCOCCNC(=O)CC[C@H](C(=O)O)N1CCN(CC(=O)O)CCN(CC(=O)O)CC1)[C@@H](C)O)C(C)C)C(=O)O [[^68Ga]Ga-1, metal not drawn] | -3.44 ± 0.08 | 295.7 ± 2.7 | 
2 | CC(C)C[C@H](NC(=O)CCOCCOCCOCCOCCOCCOCCNC(=O)CC[C@H](C(=O)O)N1CCN(CC(=O)O)CCN(CC(=O)O)CC1)C(=O)N[C@@H](C)C(=O)N[C@@H](CCCNC(=N)N)C(=O)N[C@@H](CC(C)C)C(=O)N[C@@H](CC(C)C)C(=O)N[C@H](C(=O)O)[C@@H](C)O [[^68Ga]Ga-2, metal not drawn] |  |  | -3.51 ± 0.22
3 | CC[C@H](C)[C@H](NC(=O)[C@@H]1CCCN1C(=O)[C@H](Cc1ccc(O)cc1)NC(=O)[C@H](CO)NC(=O)CCOCCOCCOCCOCCOCCOCCNC(=O)CC[C@H](C(=O)O)N1CCN(CC(=O)O)CCN(CC(=O)O)CC1)C(=O)N1CCC[C@H]1C(=O)N[C@@H](CC(=O)O)C(=O)N[C@H](C(=O)O)[C@@H](C)O [[^68Ga]Ga-3, metal not drawn] ({X1-PEG6}-SYPIPDT-OH; C-terminus assumed) | -3.92 ± 0.09 | 8080 ± 307 | 
4 | C[C@@H](O)[C@H](NC(=O)[C@H](CCC(N)=O)NC(=O)[C@H](CC(=O)O)NC(=O)[C@H](CO)NC(=O)[C@@H](NC(=O)[C@H](Cc1c[nH]cn1)NC(=O)CCOCCOCCOCCOCCOCCOCCNC(=O)CC[C@H](C(=O)O)N1CCN(CC(=O)O)CCN(CC(=O)O)CC1)[C@@H](C)O)C(=O)N[C@@H](CC(N)=O)C(=O)O [[^68Ga]Ga-4, metal not drawn] ({X1-PEG6}-HTSDQTN-OH) | -4.01 ± 0.13 | 2430 ± 38.7 | 
5 | N=C(N)NCCC[C@H](NC(=O)[C@@H](N)CCC(N)=O)C(=O)N[C@@H](Cc1c[nH]cn1)C(=O)N[C@@H](CCCCN)C(=O)N1CCC[C@H]1C(=O)N[C@@H](CCCNC(=N)N)C(=O)N[C@@H](CCC(=O)O)C(=O)NCCOCCOCCOCCOCCOCCOCCC(=O)N[C@@H](CCCCNC(=O)CC[C@H](C(=O)O)N1CCN(CC(=O)O)CCN(CC(=O)O)CC1)C(N)=O [[^68Ga]Ga-5, metal not drawn] (H-QRHKPRE[PEG6]K(X1)-NH2) | -3.91 ± 0.06 |  | 
6 | CC(C)C[C@H](NC(=O)[C@H](Cc1c[nH]c2ccccc12)NC(=O)[C@H](Cc1ccccc1)NC(=O)[C@H](CCC(N)=O)NC(=O)[C@H](C)NC(=O)[C@H](CO)NC(=O)[C@H](CC(=O)O)NC(=O)[C@@H]1CCCN1C(=O)[C@H](CCCNC(=N)N)NC(=O)[C@@H](N)CC(N)=O)C(=O)N[C@@H](Cc1c[nH]cn1)C(=O)N[C@@H](Cc1c[nH]cn1)C(=O)NCCOCCOCCOCCOCCOCCOCCC(=O)N[C@@H](CCCCNC(=O)CC[C@H](C(=O)O)N1CCN(CC(=O)O)CCN(CC(=O)O)CC1)C(N)=O [[^68Ga]Ga-6, metal not drawn] (H-NRPDSAQFWLHH[PEG6]K(X1)-NH2) | -3.86 ± 0.11 | 1060 ± 43 | 
7 | CSCC[C@H](NC(=O)[C@@H]1CCCN1C(=O)[C@@H](N)Cc1ccccc1)C(=O)N[C@@H](Cc1ccccc1)C(=O)N[C@@H](CC(N)=O)C(=O)N[C@@H](Cc1c[nH]cn1)C(=O)N[C@@H](Cc1c[nH]c2ccccc12)C(=O)N[C@@H](CCC(=O)O)C(=O)N[C@@H](CCC(N)=O)C(=O)N[C@@H](Cc1c[nH]c2ccccc12)C(=O)N1CCC[C@H]1C(=O)N1CCC[C@H]1C(=O)NCCOCCOCCOCCOCCOCCOCCC(=O)N[C@@H](CCCCNC(=O)CC[C@H](C(=O)O)N1CCN(CC(=O)O)CCN(CC(=O)O)CC1)C(N)=O [[^68Ga]Ga-7, metal not drawn] (H-FPMFNHWEQWPP[PEG6]K(X1)-NH2) | -3.03 ± 0.2 | 66.4 ± 3 | 
8 | CSCC[C@H](NC(=O)[C@@H]1CSSC[C@H](NC(=O)[C@@H](N)CCC(=O)O)C(=O)N2CCC[C@H]2C(=O)N[C@@H](CC(C)C)C(=O)N[C@@H](CO)C(=O)N[C@@H](Cc2c[nH]cn2)C(=O)N[C@@H](CC(=O)O)C(=O)NCC(=O)N[C@@H](Cc2ccc(O)cc2)C(=O)N[C@@H](CS)C(=O)N[C@@H](CC(C)C)C(=O)N[C@@H](Cc2c[nH]cn2)C(=O)N[C@@H](CC(=O)O)C(=O)NCC(=O)N[C@@H](C(C)C)C(=O)N1)C(=O)NCCOCCOCCOCCOCCOCCOCCC(=O)N[C@@H](CCCCNC(=O)CC[C@H](C(=O)O)N1CCN(CC(=O)O)CCN(CC(=O)O)CC1)C(N)=O [[^68Ga]Ga-8, metal not drawn] (H-ECPLSHDGYCLHDGVCM[PEG6]K(X1)-NH2; disulfide 2-16) |  |  | -3.16 ± 0.11
9 | CC[C@H](C)[C@@H]1NC(=O)[C@H](Cc2ccc(O)cc2)NC(=O)[C@H](CCSC)NC(=O)[C@H](CS)NC(=O)[C@H](C(C)C)NC(=O)CNC(=O)[C@H](CC(=O)O)NC(=O)[C@H](Cc2c[nH]cn2)NC(=O)[C@H](CC(C)C)NC(=O)[C@@H](NC(=O)[C@@H](N)Cc2ccc(O)cc2)CSSC[C@@H](C(=O)N[C@@H](CC(N)=O)C(=O)NCCOCCOCCOCCOCCOCCOCCC(=O)N[C@@H](CCCCNC(=O)CC[C@H](C(=O)O)N2CCN(CC(=O)O)CCN(CC(=O)O)CC2)C(N)=O)NC(=O)[C@H](C)NC(=O)[C@H](Cc2ccc(O)cc2)NC(=O)[C@H](CCCCN)NC(=O)[C@H](CC(=O)O)NC(=O)[C@H](CC(C)C)NC(=O)[C@H](C)NC(=O)[C@H](CCC(=O)O)NC1=O [[^68Ga]Ga-9, metal not drawn] (H-YCLHDGVCMYIEALDKYACN[PEG6]K(X1)-NH2; disulfide 2-19; N-terminus assumed) |  |  | -2.93 ± 0.08
10 | CC[C@H](C)[C@@H]1NC(=O)[C@H](Cc2ccc(O)cc2)NC(=O)CNC(=O)[C@H](C(C)C)NC(=O)[C@H](C(C)C)NC(=O)[C@@H](NC(=O)[C@@H](N)CC(N)=O)CSSC[C@@H](C(=O)N[C@@H](CCC(N)=O)C(=O)NCCOCCOCCOCCOCCOCCOCCC(=O)N[C@@H](CCCCNC(=O)CC[C@H](C(=O)O)N2CCN(CC(=O)O)CCN(CC(=O)O)CC2)C(N)=O)NC(=O)[C@H](CCCNC(=N)N)NC(=O)[C@H](CCC(=O)O)NC(=O)CNC1=O [[^68Ga]Ga-10, metal not drawn] (H-NCVVGYIGERCQ[PEG6]K(X1)-NH2; disulfide 2-11) | -3.92 ± 0.09 | 702 ± 42.2 | 
11 | C[C@H](NC(=O)[C@H](CCC(=O)O)NC(=O)[C@H](Cc1ccc(O)cc1)NC(=O)[C@H](CC(=O)O)NC(=O)[C@H](Cc1ccc(O)cc1)NC(=O)[C@H](Cc1ccccc1)NC(=O)CNC(=O)[C@@H]1CCCN1C(=O)CNC(=O)[C@H](CC(N)=O)NC(=O)[C@H](CCC(=O)O)NC(=O)CNC(=O)[C@H](CO)NC(=O)[C@@H](N)Cc1c[nH]c2ccccc12)C(=O)NCCOCCOCCOCCOCCOCCOCCC(=O)N[C@@H](CCCCNC(=O)CC[C@H](C(=O)O)N1CCN(CC(=O)O)CCN(CC(=O)O)CC1)C(N)=O [[^68Ga]Ga-11, metal not drawn] (H-WSGENGPGFYDYEA[PEG6]K(X1)-NH2) | -3.98 ± 0.06 | 562 ± 6.9 | 
